Measurements from ChEMBL document CHEMBL3044561, “A rapid access to new coumarinyl chalcone and substituted chromeno[4,3-c]pyrazol-4(1H)-ones and their antibacterial and DPPH radical scavenging activities” (Med Chem Res, 2011).

Legend:
[1] = tested on: Radical scavenging activity; test: Antioxidant activity assessed as DPPH free radical scavenging activity after 30 min; assay type: functional
Staphylococcus aureus = test: Antibacterial activity against Staphylococcus aureus NCTC 7447 at 1 mg/disk after 24 hr by paper disk diffusion method; assay type: functional

Compound	IC50 [1]	diameter of the inhibition zone (DIZ) (Staphylococcus aureus)	inhibition zone (IZ) (Staphylococcus aureus)
Cc1ccc(/C=C/C(=O)c2c(O)c3ccccc3oc2=O)cc1	2070 nM	13 mm	–
GENTAMICIN	–	–	15 mm
O=C(/C=C/c1ccccc1)c1c(O)c2ccccc2oc1=O	2150 nM	10 mm	–
O=C(/C=C/c1ccc([N+](=O)[O-])cc1)c1c(O)c2ccccc2oc1=O	3210 nM	16 mm	–
Cn1ncc2c(=O)oc3ccccc3c21	–	17 mm	–
O=C(/C=C/c1cccc2ccccc12)c1c(O)c2ccccc2oc1=O	2390 nM	8 mm	–
COc1ccc(/C=C/C(=O)c2c(O)c3ccccc3oc2=O)cc1	2810 nM	14 mm	–
COc1cc(/C=C/C(=O)c2c(O)c3ccccc3oc2=O)cc(OC)c1OC	2290 nM	11 mm	–
CN(C)c1ccc(/C=C/C(=O)c2c(O)c3ccccc3oc2=O)cc1	2390 nM	11 mm	–
O=c1oc2ccccc2c2c1cnn2-c1ccccc1	–	19 mm	–
O=c1oc2ccccc2c2[nH]ncc12	–	14 mm	–
O=C(/C=C/c1ccc(F)cc1)c1c(O)c2ccccc2oc1=O	2230 nM	13 mm	–
O=C(/C=C/c1ccc(Br)cc1)c1c(O)c2ccccc2oc1=O	2250 nM	9 mm	–
